Assay results published in patent publication US10258602B2 (Ocera Therapeutics, Inc., priority 2007, dated 2019).
pEC50: −log10 of the molar value.

Tested on: rat stomach fundus strips
Method: Fundus strips (approximately 0.4×1 cm) were cut from the stomach of adult male Wistar rats parallel to the circular muscle fibers. They were placed between two platinum ring electrodes, 1 cm apart (Radnoti, ADInstruments, USA) in 10 ml tissue baths containing Krebs solution bubbled with 5% CO2 in O2 and maintained at 37° C. Tissues were suspended under 1.5 g resting tension. Changes of tension were measured isometrically with force transducers and recorded with a PowerLab 8/30 data acquisition system (ADInstruments, USA). Tissues were allowed to equilibrate for 60 min during which time bath solutions were changed every 15 min.
EFS was achieved by applying 0.5 ms pulses, 5 Hz frequency, at a maximally effective voltage of 70 V. EFS was applied for 30 sec at 3 min intervals for a 30 min initial period. This initial period was separated by a 5 min interval with wash out of the bath solution. Then, a second period of stimulation was started. […] Responses to the agents were measured and expressed as % of the mean of three or four pre-drug responses to EFS. All compounds were dissolved at 1 mM in distilled water or MeOH, as stock solutions.

- pEC50: 8.30
Compound: CCCCCCCC(=O)OC[C@H](NC(=O)[C@H](CO)NC(=O)CN)C(=O)N[C@@H](Cc1ccccc1)C(=O)N[C@@H](CC(C)C)C(=O)N[C@@H](CO)C(=O)N1CCC[C@H]1C(=O)N[C@@H](CCC(=O)O)C(=O)N[C@@H](Cc1c[nH]cn1)C(=O)N[C@@H](CCC(N)=O)C(=O)N[C@@H](CCCNC(=N)N)C(=O)N[C@H](C(=O)N[C@@H](CCC(N)=O)C(=O)N[C@@H](CCC(N)=O)C(=O)N[C@@H](CCCNC(=N)N)C(=O)N[C@@H](CCCCN)C(=O)N[C@@H](CCC(=O)O)C(=O)N[C@@H](CO)C(=O)N[C@@H](CCCCN)C(=O)N[C@@H](CCCCN)C(=O)N1CCC[C@H]1C(=O)N1CCC[C@H]1C(=O)N[C@@H](C)C(=O)N[C@@H](CCCCN)C(=O)N[C@@H](CC(C)C)C(=O)N[C@@H](CCC(N)=O)C(=O)N1CCC[C@H]1C(=O)N[C@@H](CCCNC(=N)N)C(=O)O)C(C)C [Ghrelin]
